Paper PMC5554220, “A Novel Aldosterone Antagonist Limits Renal Injury in 5/6 Nephrectomy” (Scientific Reports, 2017)

Tests used:
[1] = biological target: T1, human mineralocorticoid receptor (hMR) (Homo sapiens, UniProt P08235); test: Radioligand binding, [3H]aldosterone, hMR Sf9 lysate, vacuum filtration
T1 construct: made in house; host or cells: Sf9 insect cells (baculovirus)
T1 sequence (P08235 1-984): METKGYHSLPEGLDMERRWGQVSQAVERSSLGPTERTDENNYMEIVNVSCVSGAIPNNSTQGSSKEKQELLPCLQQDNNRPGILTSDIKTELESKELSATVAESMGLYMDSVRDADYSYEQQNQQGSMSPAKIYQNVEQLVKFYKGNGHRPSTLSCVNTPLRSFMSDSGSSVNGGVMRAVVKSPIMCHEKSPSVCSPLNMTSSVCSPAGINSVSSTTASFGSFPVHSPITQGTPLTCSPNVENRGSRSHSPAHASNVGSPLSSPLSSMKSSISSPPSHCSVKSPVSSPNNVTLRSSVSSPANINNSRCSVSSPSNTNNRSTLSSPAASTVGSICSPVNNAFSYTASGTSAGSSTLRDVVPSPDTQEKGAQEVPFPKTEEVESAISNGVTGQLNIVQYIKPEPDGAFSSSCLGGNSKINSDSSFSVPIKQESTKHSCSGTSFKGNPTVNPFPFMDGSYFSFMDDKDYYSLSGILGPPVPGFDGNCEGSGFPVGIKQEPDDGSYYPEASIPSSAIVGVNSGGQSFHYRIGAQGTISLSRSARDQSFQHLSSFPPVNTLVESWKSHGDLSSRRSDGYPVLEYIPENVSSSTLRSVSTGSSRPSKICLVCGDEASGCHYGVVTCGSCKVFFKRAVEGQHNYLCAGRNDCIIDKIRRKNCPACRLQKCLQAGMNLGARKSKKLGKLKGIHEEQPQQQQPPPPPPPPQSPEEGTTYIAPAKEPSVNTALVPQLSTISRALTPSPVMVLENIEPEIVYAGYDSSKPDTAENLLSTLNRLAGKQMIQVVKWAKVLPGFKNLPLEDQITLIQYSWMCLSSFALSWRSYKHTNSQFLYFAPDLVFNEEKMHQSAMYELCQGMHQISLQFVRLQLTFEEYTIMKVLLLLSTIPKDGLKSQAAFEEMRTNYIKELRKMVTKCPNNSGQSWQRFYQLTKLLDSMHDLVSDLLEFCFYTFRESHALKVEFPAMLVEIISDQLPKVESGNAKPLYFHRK
Experimental: (§1) Full-length human mineralocorticoid receptor (hMR) to be used in radioligand binding was isolated from a human kidney cDNA library (Clontech, Palo Alto, CA). […] The hMR, hPR, and hAR cDNAs were subcloned in the eukaryotic expression vector pcDNA3. Methods for the expression of functionally active hMR, hAR and hPR utilizing the baculovirus expression system were described previously, [31].
(§2) Affinity of ligands to the soluble receptor was determined using vacuum filtration methods, preparing soluble receptors in 96-well Falcon polystyrene plates (BD Biosciences, Bedford, MA) in a total volume of 250 μl. […] Binding studies for ligands for hPR and hAR were determined using [1,2,6,7-3H(N)] […] Specific binding of 3H-progesterone for hPR and 3H-mibolerone for hAR was determined in the presence and absence of 1 μM mifepristone. Inhibition constants (Ki), were determined either from the Cheng-Prusoff equation[32], or directly using non-linear regression curve fitting to a three-parameter one-site competitive equation. […] Protein was measured using colorimetric detection and quantification of bicinchoninic acid (BCA Protein Assay, Pierce, Rockford, IL). […] Concentration response curves were analyzed statistically using a four-parameter logistic equation (Hill equation for sigmoid curves). […]

[2] = biological target: T2, human progesterone receptor (hPR) (Homo sapiens, UniProt P06401); test: Radioligand binding, [3H]progesterone, hPR expressed in Sf9
T2 sequence (P06401 679-933 limits assumed): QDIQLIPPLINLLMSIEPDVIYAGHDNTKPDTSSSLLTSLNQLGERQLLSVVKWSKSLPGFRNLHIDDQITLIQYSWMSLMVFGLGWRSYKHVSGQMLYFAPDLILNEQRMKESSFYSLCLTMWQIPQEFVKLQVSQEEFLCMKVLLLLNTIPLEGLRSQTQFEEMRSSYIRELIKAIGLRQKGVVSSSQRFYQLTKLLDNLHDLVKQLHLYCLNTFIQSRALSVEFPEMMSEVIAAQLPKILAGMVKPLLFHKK
Experimental: as §1, §2

Question: For `O=c1[nH]c2ccc(/C=C3\c4ccc(F)cc4COc4cc(F)ccc43)cc2[nH]1` [Ly], which Ki ([1]; hMR expressed in Sf9, [3H]aldosterone 0.5 nM, read-out: Mean Ki ± SEM hMR) is on record?
Answer: 1.6 ± 0.3 nM

Question: And the “Eple/Ly Ki ratio” value ([1]; hMR, 124/1.6)?
Answer: 77.5

Question: And the Ki ([2]; hPR expressed in Sf9, [3H]progesterone 0.5 nM, read-out: Mean Ki ± SEM hPR)?
Answer: 92 ± 19 nM

Question: And the “Ratio of Ki's hPR: hMR” value ([2]; selectivity)?
Answer: 58
